In patent US4271189A, “Lithium derivatives of taurine having reinforced neuro-muscular activity” (Les Laboratoires Meram, priority 1977, dated 1981):
Structures can show the parent of a compound that is named as a salt. Where two headings read alike, the source gives them in different places.

Key:
[1] = Acute toxicity (LD50) in the male mouse, intraperitoneal and oral routes
Excerpt: The acute toxicity of the compounds according to the invention was studied by the intraperitoneal route in the male mouse. The results obtained were as follows:
The value of lithium salts in the treatment of depressions and in particular of manic-depressive psychosis, is well-known. But the major disadvantage of this therapy resides in the toxicity of the currently known salts (carbonate, citrate, gluconate).

[2] = Chronic toxicity in rats over three months, renal histology; type: in vivo, rat
Procedure: A study of the chronic toxicity in rats was conducted comparatively between lithium N-acetyltaurinate and lithium carbonate:
For three months, rats received doses of 8 mg/Kg and 24 mg/Kg per day of lithium, first in the form or lithium carbonate, and in the form of lithium N-acetyltaurinate.

[3] = Human observation: bipolar manic-depressive psychosis, lithemia and mood; conditions: one patient
[4] = Investigation behaviour of the mouse, "Holed board" test; type: in vivo
Excerpt: (§1) 1. The investigation behaviour of the mouse was studied by the "Holed board" test (Boissier and Simon; Arch. Int. Pharmacodyn. 1964, 147, 3-4),

[5] = Spontaneous motility of the mouse, Boissier's photoelectric actimeter; type: in vivo
Excerpt: (§2) 2. The study of the spontaneous motility of the mouse was made by using Boissier's photoelectric actimeter.

[6] = Motility of mice after amphetamine-acetyl-taurinate interaction (photoelectric actimeter); type: in vivo; conditions: mouse, with 10 mg/kg IP dextrorotatory amphetamine
Procedure: (§3) 3. The study of the motility of the mice was also made by using Boissier's photoelectric actimeter, after amphetamine-acetyl-taurinate interaction according to the invention: the mice are treated simultaneously with 10 mg/kg (IP) of dextrorotatory amphetamine and with an optimal dose of acetyltaurinate.

[7] = Neuro-muscular activity in the six pharmacological tests (summary); type: in vivo; conditions: mouse and rat
Procedure: as §1, §2, §3
(§4) 4. A study of the hypothermia in the mouse was effected by determining the rectal temperature of the mice 30 mins. before the intraperitoneal administration of the product, at the moment of this administration, then 30 mins., 1 hour, 2, 3 and 4 hrs. after the injection of the product.
(§5) 5. The study of the hypothermia after amphetamine-acetyl-taurinate interaction according to the invention was made according to the same method as previously in the mouse, the animals being treated simultaneously with 30 mg/kg (IP) of dextrorotatory amphetamine and with an optimal dose of the product to be tested.
(§6) 6. A test was also made of the appetite- and thirst-depressant activities in the rat.

[8] = Minimum lethal dose by intravenous route in male rabbits; type: in vivo, male rabbit
Procedure: This reduction of acute toxicity was confirmed by the evaluation of the minimum lethal dose by intraveinous route in male rabbits, comparatively beween lithium citrate and lithium N-acetyltaurinate:
In the same experimental conditions, the minimum lethal dose is 42 mg of lithium with lithium citrate, and 204 mg lithium with lithium N-acetyltaurinate.

[9] = Test of morphinic agitation in mice; type: in vivo, mouse; conditions: for effect type in the morphinic agitation test: 5-day treatment, 100, 500 and 2500 mg/Kg per os
Excerpt: Furthermore, the neuro-muscular activity of the lithium N-acetyltaurinate has been evaluated in comparison with that of taurine and of the other salts of N-acetyltaurine, using the test of morphinic agitation.

[10] = Appetite- and thirst-depressant activities in the rat; type: in vivo
Excerpt: as §6

[11] = Hypothermia after amphetamine-acetyl-taurinate interaction in the mouse; type: in vivo
Procedure: as §5

[12] = Hypothermia in the mouse (rectal temperature); type: in vivo; conditions: for hypothermia / reduction in the rectal temperature: intraperitoneal
Procedure: as §4

[13] = in vivo
[14] = Human observation: chronic alcoholism with predelirium; type: in vivo
Excerpt: (§7) A person . . . […] 2 suicide attempts. Predominance of psychomotive inhibition. […] a person . . .

[15] = Human observation: neuromuscular hyperexcitability; type: in vivo
Excerpt: The following observation is given by way of example: a person has been treated for 7 years for a neuromuscular hyperexcitability,with a wide range of neuro-vegetative disorders. They present critical phenomena of lipothymia type, anxious crises with paroxysmal tachycardia. They have had four grand mal epileptic crises.
as §7

[16] = listed as N-acetyl-taurinate of potassium
[17] = listed as N-acetyl-taurinate of lithium
[18] = listed as N-acetyltaurinate of calcium

SMILES: O=C(O)O [Lithium carbonate, reference compound]
- LD50 ([1]; mouse, in vivo, ip): 88 mg/kg
- LD50 ([1]; mouse, in vivo, po): 162 mg/kg
- tubular renal lesions (histological study) ([2]; rats, 8 and 24 mg/Kg per day of lithium, three months): tubular renal lesions appear in all the treated animals
- tubular renal lesions thirty days after the treatment has stopped ([2]; rats, dose of 24 mg of lithium per Kg, 30 days after stop): the lesions persist
- lithemia ([3]; 1 g/day): ≤ 0.5 meq/liter
- signs of intolerance ([3]; increased dose): permanent tremblings: nauseas, vomitings, hypotension
- stability of the mood [3]: a stability of the mood is obtained

SMILES: CC(=O)NCCS(=O)(=O)O [Example 2, N-acetyl-taurinate of potassium]
- investigation behaviour / exploratory activity [4, 16]: increase in the investigation behaviour in the mouse, not proportional to the dose
- LD50 ([1]; intraperitoneal route, male mouse, mg of compound, listed as N-acetyltaurinate of potassium): 3234 mg/kg
- LD50 ([1]; oral route, male mouse, mg of compound, listed as N-acetyltaurinate of potassium): 8170 mg/kg
- motive agitation ([5]; dose not stated, listed as N-acetyl-taurinate of potassium): slight increase
- amphetaminic excitation [6, 16]: reduction
- neuro-muscular activity in six tests [7]: neuro-muscular activity has been demonstrated

SMILES: O=C(O)CC(O)(CC(=O)O)C(=O)O [lithium citrate, reference compound]
- minimum lethal dose [8]: 42 mg of lithium

SMILES: NCCS(=O)(=O)O [taurine]
- effect type in the morphinic agitation test [9]: no effect
- neuro-muscular activity in six tests [7]: without any activity

SMILES: O=C([O-])[C@H](O)[C@@H](O)[C@H](O)[C@H](O)CO.[Li+] [lithium gluconate, reference compound]
- effect on the morphinic agitation relative to lithium acetyltaurinate at 100 mg/Kg ([9]; potentiation in small doses): comparable

SMILES: CC(=O)NCCS(=O)(=O)O [Example 3, N-acetyl-taurinate of lithium]
- appetite- and thirst-depressant actions [10]: very clear appetite- and thirst-depressant actions
- taking of food and drink consumed [10]: very substantial reduction
- minimum lethal dose [8]: 204 mg of lithium
- hypothermia after simultaneous injection of amphetamine ([11]; with 30 mg/kg IP dextrorotatory amphetamine): completely eliminated
- investigation behaviour / exploratory activity [4, 17]: very clear increase
- acute toxicity compared with that of lithium carbonate ([1]; male mice, intraperitoneal and oral routes): clearly reduced acute toxicity
- LD50 ([1]; mouse, in vivo, ip, LD50): 3880 mg/kg
- LD50 ([1]; mouse, in vivo, ip, LD50 in the male mouse, intraperitoneal route): 155 mg/kg
- LD50 ([1]; mouse, in vivo, po, LD50): 6630 mg/kg
- LD50 ([1]; mouse, in vivo, po, LD50 in the male mouse): 266 mg/kg
- hypothermia / reduction in the rectal temperature [12, 17]: significant hypothermia
- toxicity with respect to lithium carbonate (acute and chronic renal) ([2]; conclusion from acute and chronic toxicity studies): less toxic
- tubular renal lesions thirty days after the treatment has stopped ([2]; rat, in vivo): a reversion of the lesions is noted in all the animals
- motility in free condition [5]: very clear increase
- motive agitation ([5]; dose not stated, listed as N-acetyl-taurinate of lithium): increase
- stability of the mood [13]: same stability of the mood
- potentiation of the morphinic agitation ([9]; 100 mg/Kg per os, between the 75th and the 90th minute): 45%
- effect type in the morphinic agitation test ([9]; listed as lithium acetyltaurinate): biphasic effect
- effect on the agitation caused by morphine sulphate ([9]; stronger doses (500 and 2500 mg/Kg) per os): antagonistic effect
- amphetaminic excitation [6, 17]: increase

SMILES: CC(=O)NCCS(=O)(=O)O [Example 5, N-acetyl-taurinate of calcium]
- hyperthermia ([11]; amphetamine interaction): does not modify
- investigation behaviour / exploratory activity [4, 18]: increase
- LD50 ([1]; intraperitoneal route, male mouse, mg of compound, listed as N-acetyltaurinate of calcium): 1604 mg/kg
- LD50 ([1]; oral route, male mouse, mg of compound, listed as N-acetyltaurinate of calcium): 13230 mg/kg
- hypothermia / reduction in the rectal temperature [12, 18]: significant reduction
- motive agitation ([5]; low dose (100 mg/kg), listed as N-acetyltaurinate of calcium, 100 mg/kg): reduction
- alcoholic weaning ([14]; 1.5 g daily oral): upkept
- intellectual efficiency ([14]; 1.5 g daily oral): improved
- tremblings ([14]; 1.5 g daily oral): considerably reduced
- effect on attack of mental aberration with convulsions ([14]; venous perfusion 1 g per hour for three hours): sedation of the attack with a state of euphoria
- effect type in the morphinic agitation test ([9]; listed as Ca): mono-phasic effect, antagonistic to the morphinic agitation even in small doses
- amphetaminic excitation [6, 18]: does not modify

SMILES: CC(=O)NCCS(=O)(=O)O [Example 4, N-acetyl-taurinate of magnesium]
- reduction of rectal temperature after simultaneous injection of amphetamine ([11]; with amphetamine, 1 hour after the injection): completely eliminated
- LD50 ([1]; intraperitoneal route, male mouse, mg of compound, listed as N-acetyltaurinate of magnesium): 1709 mg/kg
- LD50 ([1]; oral route, male mouse, mg of compound, listed as N-acetyltaurinate of magnesium): 17400 mg/kg
- reduction in the maximum rectal temperature ([12]; 2 hours after the injection): very considerable reduction
- motive agitation ([5]; high dose (200 mg/kg)): very clear reduction
- motive agitation ([5]; low dose (100 mg/kg), listed as N-acetyl-taurinate of magnesium, 100 mg/kg): increase
- effect type in the morphinic agitation test ([9]; listed as Mg): mono-phasic effect, antagonistic to the morphinic agitation even in small doses
- general state of the patient ([15]; venous perfusion 1 g first ten days with 1.5 g/day per os): complete recovery of the general state
- critical phenomena ([15]; verified with a recession of 13 months): disappearance of the critical phenomena
- amphetaminic excitation ([6]; listed as N-acetyl-taurinate of magnesium): reduction
